Results reported in patent publication US20250205252A1, “7-KETOLITHOCHOLIC ACID FOR USE IN THE TREATMENT OF GUT DYSBIOSIS AND AS A PREBIOTIC” (NZP UK Limited, priority 2022, published 2025).
Read-outs that look alike come from different tables or passages of the source.

What was measured:
Eubacterium eligens = assay: 3-stage gut model, bacterial composition by 16s rRNA sequencing, Eubacterium eligens; conditions: after treatment, 2% before
[1] = tested on: Faecalibacterium prausnitzii; assay: 3-stage gut model, bacterial composition by 16s rRNA sequencing, F. prausnitzii; conditions: after treatment
[2] = tested on: SCFAs acetate, propionate, butyrate and lactate; assay type: cell-based; conditions: preliminary results from one donor, FIG. 3
[3] = tested on: Faecalibacterium prausnitzii (Fprau655); assay: 3-stage gut model, flow-FISH enumeration, Faecalibacterium prausnitzii
[4] = tested on: Eubacterium rectale (Erec482); assay: 3-stage gut model, flow-FISH enumeration, Eubacterium rectale; conditions: across V1, V2 and V3; not statistically significant
[5] = tested on: Clostridium histolyticum (Chis150); assay: 3-stage gut model, flow-FISH enumeration, Clostridium histolyticum; assay type: cell-based; conditions: FIG. 6
[6] = tested on: Desulfovibrionales and Dessulfuromonadales; assay: Batch culture fermentation of faecal slurry, flow-FISH enumeration (DSV); assay type: cell-based
Roseburia spp. (Rrec584) = assay: 3-stage gut model, flow-FISH enumeration, Roseburia; conditions: across V1, V2 and V3; not statistically significant
[7] = tested on: total bacteria (EUB-I-II-III); assay: 3-stage gut model, flow-FISH enumeration, total bacteria; conditions: for total bacteria (EUB-I-II-III) after treatment: proximal region (V1), 400 mg/day, 512 h (SS2)
Eubacterium rectale = assay: 3-stage gut model, bacterial composition by 16s rRNA sequencing, Eubacterium rectale; conditions: after treatment, proximal region of the colon; before 4%
Dialister pneumosintes = assay: 3-stage gut model, bacterial composition by 16s rRNA sequencing, Dialister pneumosintes; conditions: after treatment, before 7%
[8] = tested on: Streptococcus spp. (Strp); assay: 3-stage gut model, flow-FISH enumeration, Streptococcus; conditions: FIG. 6
[9] = tested on: Bacteroides xylanisolvens; assay: 3-stage gut model, bacterial composition by 16s rRNA sequencing, Bacteroides xylanisolvens; conditions: after treatment, transverse region; 2% before
Clostridium species = assay: 3-stage gut model, bacterial composition by 16s rRNA sequencing, Clostridium; assay type: cell-based; conditions: after treatment; from 5.6%
Atopobium-Coriobacterium = assay: Batch culture fermentation of faecal slurry, flow-FISH enumeration (ATO); assay type: cell-based
Bifidobacterium spp. = assay: 3-stage gut model, bacterial composition by 16s rRNA sequencing, Bifidobacterium; conditions: after treatment, V3 (distal colon); lower than the baseline
[10] = tested on: bacterial metabolites lactate, acetate, butyrate, propionate and valerate; assay: 3-stage gut model, bacterial metabolite quantification by GC-MS; assay type: cell-based
bacterial metabolites = assay: 3-stage gut model, metabolite spectra analysis by 1H NMR; conditions: V3 (distal colon)
[11] = assay type: in vivo, CD-1 mice
Description: The study design: • CTRL 1 Mice on normal diet for 60 days (5 mice) • CTRL 2 Mice on normal diet with 7KLCA at 10 mg/kg for 60 days (5mice) • CTRL 3 Mice on normal diet for 30 days, then 30 days on a high glucose diet (5 mice) • Treated Mice on normal diet for 30 days, then 30 days on a high glucose diet with 7KLCA throughout the study (5 mice)
Standard diet (10.6% fat J/J, 29.0% protein J/J and 60.4% carbohydrate J/J). High glucose diet (10.5% fat J/J, 16.4% protein J/J and 73.1% carbohydrate J/J). For all experimental group, free accesses to tap water The animals were kept in group of 5 animals/sex/group/cage in Plexiglas cages.
Experiments were carried out in 8-12-week-old male CD-1 mice according to the guidelines for the safe use and care of experimental animals in accordance with the Italian D.L. no. 116 of 27 Jan. 1992 and associated guidelines in the European Communities Council (86/609/ECC and 2010/63/UE) including the 3Rs concept (Kilkenny et al, 2010; McGrath et al, 2015). Animals were housed with ad libitum access to food and water and maintained on a 12-hour light/dark cycle. Experimental study groups were randomized and blinded. The animals in the control groups were handled in an identical manner to the treated group using the respective vehicle and the same volume of administration. Tested item formulation or vehicle was administered by oral gavage. The body weight was recorded once before the assignment to the experimental groups, on the first day of administration, and then weekly during the treatment.
The dose of 7-KLCA used in this study was 10 mg/kg/day. The vehicle used was DMSO in saline solution (NaCl 0.9%), 1/3 w/w. 7-KLCA was solubilised in DMSO (1 part w/w) and then resuspended in saline solution (3 parts w/w). This solution (200 μl/mouse) was prepared freshly every day and was kept under magnetic stirring during the daily administration.
The body weight was recorded once before the assignment to the experimental groups, on the first day of administration, and then weekly.
General clinical observations were performed at least once a day, at the same hour. The health condition of the animals was recorded.
After overnight fasting, blood of the animals was collected in serum separator tubes. FIGS. 10 and 13 show the change in body weight for the mice in the study.

Bifidobacterium species = assay: Batch culture fermentation of faecal slurry, flow-FISH enumeration (BIF); assay type: cell-based
[12] = tested on: Bacteroides-Prevotella (BAC303); assay: 3-stage gut model, flow-FISH enumeration, Bacteroides-Prevotella; conditions: 400 mg/day, 512 h; for Bacteroides-Prevotella (BAC303) population numbers after treatment: transverse region (V2)
[13] = tested on: Desulfovibrionales (DSV687); assay: 3-stage gut model, flow-FISH enumeration, Desulfovibrionales; conditions: FIG. 6
[14] = tested on: Bifidobacterium spp. (Bif164); assay: 3-stage gut model, flow-FISH enumeration, Bifidobacterium
Total bacteria = assay: Batch culture fermentation of faecal slurry, flow-FISH enumeration (Total); assay type: cell-based; conditions: 7-KLCA at 5 and 10 h, maltodextrin only at 5 h
[15] = V1, V2 and V3, not statistically significant
[16] = HGD+7KLCA vs CTRL 3 (HGD), day 60
[17] = normal diet 60 days, CTRL 2 vs CTRL 1

Compound: C[C@H](CCC(=O)O)[C@H]1CC[C@H]2[C@@H]3C(=O)C[C@@H]4C[C@H](O)CC[C@]4(C)[C@H]3CC[C@]12C [7-KLCA, 3α-hydroxy-7-oxo-5β-cholanic acid]
- abundance of Eubacterium eligens (Eubacterium eligens; V1): 2%
- abundance of Eubacterium eligens (Eubacterium eligens; V2): 5%
- abundance of Eubacterium eligens (Eubacterium eligens; V3): 2%
- abundance of F. prausnitzii ([1]; V3 (distal colon), from 0.6%): 10%
- abundance of Faecalibacterium prausnitzii ([1]; proximal region of the colon (V1), before 4%): 17%
- abundance of F. prausnitzii, of total bacterial composition ([1]; transverse region of the colon (V2)): 18%
- SCFA production (metabolic profile) [2]: promoting beneficial SCFA production
- change in numbers of Faecalibacterium prausnitzii between baseline and after treatment ([3]; 7KLCA: V2 and V3): statistically significant increases
- numbers of Faecalibacterium prausnitzii after treatment ([3]; V2, baseline Log10 7.47±0.91 CFU/mL): 8.81±0.09 Log10 CFU/mL
- numbers of Faecalibacterium prausnitzii after treatment ([3]; V3, baseline Log10 6.95±0.97 CFU/mL): 8.39±0.22 Log10 CFU/mL
- change in Eubacterium rectale between baseline and after treatment [4]: increase
- increases in pathogenic Clostridium histolyticum [5]: no statistically significant increases
- increases in pathogenic species Desulfovibrionales and Desulfuromonadales [6]: no increases
- change in Roseburia spp. between baseline and after treatment (Roseburia spp. (Rrec584)): increase
- numbers of total bacteria after treatment versus Baseline ([7]; all three regions of the model, not significant): greater
- total bacteria (EUB-I-II-III) after treatment [7]: 9.35±0.16 Log10 CFU/mL
- abundance of Eubacterium rectale (Eubacterium rectale): 18%
- Dialister pneumosintes, percentage of total bacteria composition (Dialister pneumosintes; distal colon (V3)): 3%
- Dialister pneumosintes, percentage of total bacteria composition (Dialister pneumosintes; transverse colon (V2)): 3%
- increases in pathogenic Streptococcus [8]: no statistically significant increases
- abundance of Bacteroides xylanisolvens [9]: 9%
- Clostridium species, of total bacterial species detected (Clostridium species): 4.5%
- increases in pathogenic species Atopobium, Coriobacterium (Atopobium-Coriobacterium): no increases
- abundance of Bifidobacterium spp. (Bifidobacterium spp.): 5%
- change in acetate concentration ([10]; GC-MS, after treatment vs SS1): no statistically significant changes
- change in butyrate concentration ([10]; GC-MS, after treatment vs SS1): no statistically significant changes
- change in valerate concentration ([10]; GC-MS, after treatment vs SS1): no statistically significant changes
- change in lactate concentration [10, 15]: increases measured
- change in propionate concentration [10, 15]: increases measured
- alanine in 1H NMR spectrum (bacterial metabolites; after treatment): detected
- acetate peaks in 1H NMR spectrum (bacterial metabolites; after vs before treatment): higher peaks
- bacterial metabolite iso-leucine in 1H NMR spectrum (bacterial metabolites; after vs before treatment): presence after treatment
- bacterial metabolite leucine in 1H NMR spectrum (bacterial metabolites; after vs before treatment): presence after treatment
- propionate peaks in 1H NMR spectrum (bacterial metabolites; after vs before treatment): higher peaks
- peaks of butyrate in 1H NMR spectrum (bacterial metabolites; after vs prior to treatment): greater
- toxicity ([11]; 10 mg/kg, 60 days, oral gavage): no toxicity was observed
- blood glucose levels ([11]; HGD+7KLCA vs CTRL 3 (HGD), after 60 days): significantly lower
- HDL cholesterol levels [11, 16]: slight, though not significant, increase
- LDL cholesterol levels [11, 16]: significantly reduced
- total cholesterol levels [11, 16]: significantly reduced
- weight gain ([11]; after switch to HGD diet (days 30-60), 10 mg/kg/day, CTRL 3 gained significantly more): gained a similar amount of weight to the mice on the normal diet
- weight gains ([11]; initial 30-day period on standard diet, treated group vs CTRL 3): no significant difference
- insulin levels ([11]; normal diet 30 days followed by HGD diet 30 days): trend of increased insulin levels
- weight gains ([11]; normal diet 60 days, 10 mg/kg oral gavage (CTRL 2) vs CTRL 1): no significant difference
- blood glucose levels [11, 17]: no significant difference
- levels of HDL cholesterol [11, 17]: no significant difference
- levels of LDL cholesterol [11, 17]: no significant difference
- levels of total cholesterol [11, 17]: no significant difference
- Bifidobacterium numbers (Bifidobacterium species; at T5, vessels containing 7-KLCA and maltodextrin): 7.45±0.16 Log10 CFU/mL
- Bifidobacterium numbers (Bifidobacterium species; at T10, vessels containing 7-KLCA and maltodextrin): 7.55±0.21 Log10 CFU/mL
- change in Bifidobacterium spp. (BIF) numbers, statistical significance (Bifidobacterium species; batch culture, 7-KLCA at 5 and 10 h): statistically significant increases
- Bifidobacterium numbers (Bifidobacterium species; starting value (0 h), vessels containing 7-KLCA and maltodextrin): 6.48±0.14 Log10 CFU/mL
- Bacteroides-Prevotella population numbers after treatment ([12]; distal region (V3)): 7.69±0.15 Log10 CFU/mL
- Bacteroides-Prevotella (BAC303) population numbers after treatment [12]: 8.47±0.24 Log10 CFU/mL
- increases in pathogenic Desulfovibrionales [13]: no statistically significant increases
- increase in Bifidobacterium spp. (Bif164) between Baseline and after treatment, statistical significance ([14]; 3-stage gut model): no statistically significant increases
- observed change in Bifidobacterium spp. numbers after treatment ([14]; across all three stages (V1, 2 and 3)): observed increase
- Bifidobacterium spp. (Bif164) numbers after treatment ([14]; transverse region, Baseline Log 10 7.54±1.06 CFU/mL): 8.16±0.13 Log 10 CFU/mL
- change in total bacteria, statistical significance (Total bacteria): statistically significant increases

Compound: C[C@H](CCC(=O)O)[C@H]1CC[C@H]2[C@@H]3[C@@H](O)C[C@@H]4C[C@H](O)CC[C@]4(C)[C@H]3CC[C@]12C [UDCA, ursodeoxycholic acid, reference compound]
- total bacteria (EUB-I-II-III) after treatment [7]: 8.74±0.50 Log10 CFU/mL
- Bacteroides-Prevotella (BAC303) population numbers after treatment [12]: 6.94±0.33 Log10 CFU/mL
